Reference: ChEMBL document CHEMBL1133531, “Carbonic anhydrase inhibitors: perfluoroalkyl/aryl-substituted derivatives of aromatic/heterocyclic sulfonamides as topical intraocular pressure-lowering agents with prolonged duration of action” (J Med Chem, 2000)
Converted amounts (≈) assume the structure as drawn.

Legend:
[1] = Solubility in pH 7.4 Buffer, at 25 Degree C; assay type: physicochemical
Carbonic anhydrase 1 [2] = target: T1, Carbonic anhydrase 1 (Homo sapiens, UniProt P00915)
Description: Inhibition of human recombinant carbonic anhydrase I (CA1)

Carbonic anhydrase 4 = target: T2, Carbonic anhydrase 4 (Bos taurus, UniProt Q95323)
T2 sequence (Q95323 whole entry): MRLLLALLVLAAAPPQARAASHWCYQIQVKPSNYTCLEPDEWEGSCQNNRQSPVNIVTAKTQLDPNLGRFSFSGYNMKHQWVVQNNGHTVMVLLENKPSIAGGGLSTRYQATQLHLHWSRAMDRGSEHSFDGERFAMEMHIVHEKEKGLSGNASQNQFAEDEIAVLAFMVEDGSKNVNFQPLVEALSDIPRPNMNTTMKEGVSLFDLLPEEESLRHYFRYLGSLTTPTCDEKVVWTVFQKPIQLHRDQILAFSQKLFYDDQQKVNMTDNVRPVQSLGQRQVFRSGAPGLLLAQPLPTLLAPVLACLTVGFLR
Description: Inhibition of bovine carbonic anhydrase IV (CA4) from bovine lung microsomes

[3] = octanol/water
Description: Partition coefficient (logD) (chloroform/buffer)

Oryctolagus cuniculus [4] = species: Oryctolagus cuniculus
Description: Tested for ex vivo distribution in aqueous humor after topical administration in albino rabbits (Ocular tissue concentration after 1 hr)

Oryctolagus cuniculus [5] = species: Oryctolagus cuniculus; remark: listed apart in the source
Description: Tested for ex vivo distribution in aqueous humor after topical administration in albino rabbits (Ocular tissue concentration after 2 hr)

Oryctolagus cuniculus [6] = species: Oryctolagus cuniculus; remark: listed apart in the source
Description: Tested for ex vivo distribution in ciliary process after topical administration in albino rabbits (Ocular tissue concentration after 1 hr)

Oryctolagus cuniculus [7] = species: Oryctolagus cuniculus; remark: listed apart in the source
Description: Tested for ex vivo distribution in ciliary process after topical administration in albino rabbits (Ocular tissue concentration after 2 hr)

Oryctolagus cuniculus [8] = species: Oryctolagus cuniculus; remark: listed apart in the source
Description: Tested for ex vivo distribution in cornea after topical administration in albino rabbits (Ocular tissue concentration after 1 hr)

Oryctolagus cuniculus [9] = species: Oryctolagus cuniculus; remark: listed apart in the source
Description: Tested for ex vivo distribution in cornea after topical administration in albino rabbits (Ocular tissue concentration after 2 hr)

Oryctolagus cuniculus [10] = species: Oryctolagus cuniculus; remark: listed apart in the source
Description: In vitro transcorneal accession rate in rabbit corneal denuded epithelium

Oryctolagus cuniculus [11] = species: Oryctolagus cuniculus; remark: listed apart in the source
Description: In vitro transcorneal accession rate in rabbit corneal intact epithelium

[12] = Partition coefficient (logD) (chloroform-buffer); assay type: physicochemical
Oryctolagus cuniculus [13] = species: Oryctolagus cuniculus; remark: listed apart in the source
Description: Tested for in vivo IOP-lowering of normotensive albino rabbits after topical administration at the specified interval (30 min) at pH 6.5

Oryctolagus cuniculus [14] = species: Oryctolagus cuniculus; remark: listed apart in the source
Description: Tested for in vivo IOP-lowering of normotensive albino rabbits after topical administration at the specified interval (60 min) at pH 6.5

Oryctolagus cuniculus [15] = species: Oryctolagus cuniculus; remark: listed apart in the source
Description: Tested for in vivo IOP-lowering of normotensive albino rabbits after topical administration at the specified interval (90 min) at pH 6.5

physchem = conditions: pH 7.4 buffer
Description: Tested for solubility in pH 7.4 buffer, at 25 Degree C

Oryctolagus cuniculus [16] = species: Oryctolagus cuniculus; remark: listed apart in the source
Description: Tested for in vivo IOP-lowering of normotensive albino rabbits after topical administration at the specified interval (30 min) at pH 7

Oryctolagus cuniculus [17] = species: Oryctolagus cuniculus; remark: listed apart in the source
Description: Tested for in vivo IOP-lowering of normotensive albino rabbits after topical administration at the specified interval (60 min) at pH 7

Oryctolagus cuniculus [18] = species: Oryctolagus cuniculus; remark: listed apart in the source
Description: Tested for in vivo IOP-lowering of normotensive albino rabbits after topical administration at the specified interval (90 min) at pH 7

Oryctolagus cuniculus [19] = test: Tested for in vivo IOP-lowering of glaucomatous rabbits after topical administration at the specified interval( 90 min) at pH 6.5; assay type: functional
Oryctolagus cuniculus [20] = test: Tested for in vivo IOP-lowering of glaucomatous rabbits after topical administration at the specified interval( 30 min) at pH 6.5; assay type: functional
Oryctolagus cuniculus [21] = test: Tested for in vivo IOP-lowering of glaucomatous rabbits after topical administration at the specified interval( 60 min) at pH 6.5; assay type: functional
Carbonic anhydrase 1 [22] = target: T1, Carbonic anhydrase 1; test: Tested for inhibition of human (cloned) isoenzyme carbonic anhydrase 1.
Carbonic anhydrase 1 [23] = target: T1, Carbonic anhydrase 1; test: Tested for inhibition of human (cloned) isozyme Carbonic anhydrase I
Carbonic anhydrase 1 [24] = target: T1, Carbonic anhydrase 1; test: 99 Tested for inhibition of human (cloned) isozyme Carbonic anhydrase I

T1 sequence (P00915 whole entry): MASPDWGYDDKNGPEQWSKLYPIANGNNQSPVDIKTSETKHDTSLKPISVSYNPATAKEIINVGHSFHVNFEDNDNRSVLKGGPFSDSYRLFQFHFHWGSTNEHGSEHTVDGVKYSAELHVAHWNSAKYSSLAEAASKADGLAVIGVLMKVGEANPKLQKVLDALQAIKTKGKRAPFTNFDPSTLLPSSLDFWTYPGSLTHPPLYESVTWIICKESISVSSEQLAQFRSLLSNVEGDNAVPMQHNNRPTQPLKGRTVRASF

SMILES | Ki (Carbonic anhydrase 1 [2]) [nM] | Ki (Carbonic anhydrase 4) [nM] | Kin (Oryctolagus cuniculus [10]) [h⁻¹] | Kin (Oryctolagus cuniculus [11]) [h⁻¹] | other results
Cn1nc(S(N)(=O)=O)sc1=NS(=O)(=O)C(F)(F)F | 2000 | 32 | 4800 | 3100 | logD [12]: 1.012; Delta IOP (Oryctolagus cuniculus [13]): 3.2 mmHg; Delta IOP (Oryctolagus cuniculus [14]): 7.3 mmHg; Delta IOP (Oryctolagus cuniculus [15]): 4.9 mmHg; solubility (physchem): 69 mM (≈ 22.5 mg/mL)
NS(=O)(=O)c1nc2ccc(NS(=O)(=O)c3c(F)c(F)c(F)c(F)c3F)cc2s1 | 41 | 5 | – | – | Delta IOP (Oryctolagus cuniculus [16]): 3 mmHg; Delta IOP (Oryctolagus cuniculus [17]): 8 mmHg; Delta IOP (Oryctolagus cuniculus [18]): 6.6 mmHg
NS(=O)(=O)c1nnc(NC(=O)c2c(F)c(F)c(F)c(F)c2F)s1 | 250 | 10 | 10100 | 4800 | logD [12]: 2.245; Delta IOP (Oryctolagus cuniculus [16]): 2.2 mmHg; Delta IOP (Oryctolagus cuniculus [17]): 7.3 mmHg; Delta IOP (Oryctolagus cuniculus [18]): 6.5 mmHg; solubility (physchem): 43 mM (≈ 16.1 mg/mL)
Cn1nc(S(N)(=O)=O)sc1=NS(=O)(=O)c1c(F)c(F)c(F)c(F)c1F | 250 | 9 | 8800 | 4900 | solubility [1]: 66 mM (≈ 28 mg/mL); Delta IOP (Oryctolagus cuniculus [19]): 16.9 mmHg; Delta IOP (Oryctolagus cuniculus [20]): 7.1 mmHg; Delta IOP (Oryctolagus cuniculus [21]): 14.2 mmHg; logD [3]: 2.347; Delta IOP (Oryctolagus cuniculus [13]): 4.7 mmHg; Delta IOP (Oryctolagus cuniculus [14]): 11.3 mmHg; Delta IOP (Oryctolagus cuniculus [15]): 9.1 mmHg; Drug concentration (Oryctolagus cuniculus [4]): 296 µM; Drug concentration (Oryctolagus cuniculus [5]): 39 µM; Drug concentration (Oryctolagus cuniculus [6]): 38 µM; Drug concentration (Oryctolagus cuniculus [7]): 7.1 µM; Drug concentration (Oryctolagus cuniculus [8]): 150 µM; Drug concentration (Oryctolagus cuniculus [9]): 36 µM
NS(=O)(=O)c1ccc(NNS(=O)(=O)C(F)(F)C(F)(F)C(F)(F)C(F)(F)C(F)(F)C(F)(F)C(F)(F)C(F)(F)F)cc1 | – | 860 | – | – | Ki (Carbonic anhydrase 1 [22]): 1680 nM
NS(=O)(=O)c1nnc(NC(=O)CCNS(=O)(=O)c2c(F)c(F)c(F)c(F)c2F)s1 | 200 | 9 | – | – | Delta IOP (Oryctolagus cuniculus [16]): 4 mmHg; Delta IOP (Oryctolagus cuniculus [17]): 7.5 mmHg; Delta IOP (Oryctolagus cuniculus [18]): 6.1 mmHg
NS(=O)(=O)c1nnc(NS(=O)(=O)C(F)(F)C(F)(F)C(F)(F)C(F)(F)F)s1 | 360 | 9 | 7000 | 4300 | logD [12]: 1.525; Delta IOP (Oryctolagus cuniculus [16]): 2.8 mmHg; Delta IOP (Oryctolagus cuniculus [17]): 8.5 mmHg; Delta IOP (Oryctolagus cuniculus [18]): 5.6 mmHg; solubility (physchem): 50 mM (≈ 23.1 mg/mL)
NS(=O)(=O)c1nnc(NS(=O)(=O)c2ccc(NS(=O)(=O)C(F)(F)C(F)(F)C(F)(F)C(F)(F)C(F)(F)C(F)(F)C(F)(F)C(F)(F)F)cc2)s1 | 800 | 21 | 7.5 | 4.1 | logD [12]: 1.689
CC(=O)/N=c1/sc(S(N)(=O)=O)nn1C [METHAZOLAMIDE] | – | – | 13000 | 1900 | logD [3]: 0.06
NS(=O)(=O)c1nnc(NS(=O)(=O)c2ccc(NC(=O)C(F)(F)C(F)(F)C(F)(F)C(F)(F)C(F)(F)C(F)(F)C(F)(F)C(F)(F)F)cc2)s1 | 600 | 13 | 8 | 3.2 | logD [12]: 1.436
NS(=O)(=O)c1nc2ccc(OS(=O)(=O)C(F)(F)C(F)(F)C(F)(F)C(F)(F)F)cc2s1 | 29 | 7 | – | – | –
NS(=O)(=O)c1nc2ccc(OS(=O)(=O)C(F)(F)F)cc2s1 | 55 | 10 | – | – | –
NS(=O)(=O)c1ccc(NS(=O)(=O)C(F)(F)C(F)(F)C(F)(F)C(F)(F)C(F)(F)C(F)(F)C(F)(F)C(F)(F)F)c(I)c1 | 3400 | 15000 | – | – | –

Further lines, with some results ahead:

Ki (Carbonic anhydrase 1 [2]) [nM] | Ki (Carbonic anhydrase 4) [nM] | SMILES | Kin (Oryctolagus cuniculus [10]) [h⁻¹] | Kin (Oryctolagus cuniculus [11]) [h⁻¹] | other results
210 | 6 | NS(=O)(=O)c1nnc(NS(=O)(=O)c2c(F)c(F)c(F)c(F)c2F)s1 | 8700 | 4500 | solubility [1]: 62 mM (≈ 25.4 mg/mL); logD [3]: 2.113; Drug concentration (Oryctolagus cuniculus [4]): 324 µM; Drug concentration (Oryctolagus cuniculus [5]): 42 µM; Drug concentration (Oryctolagus cuniculus [6]): 45 µM; Drug concentration (Oryctolagus cuniculus [7]): 12.5 µM; Drug concentration (Oryctolagus cuniculus [8]): 176 µM; Drug concentration (Oryctolagus cuniculus [9]): 69 µM
– | 650 | NS(=O)(=O)c1cccc(NC(=O)c2c(F)c(F)c(F)c(F)c2F)c1 | – | – | Ki (Carbonic anhydrase 1 [23]): 1400 nM
– | 600 | NS(=O)(=O)c1ccc(NC(=O)c2c(F)c(F)c(F)c(F)c2F)cc1 | – | – | Ki (Carbonic anhydrase 1 [24]): 950 nM
– | 810 | NS(=O)(=O)c1ccccc1NC(=O)c1c(F)c(F)c(F)c(F)c1F | – | – | Ki (Carbonic anhydrase 1 [23]): 1560 nM
900 | 310 | NS(=O)(=O)c1ccc(CCNC(=O)c2c(F)c(F)c(F)c(F)c2F)cc1 | – | – | –
25 | 6 | NS(=O)(=O)c1nc2ccc(OS(=O)(=O)c3c(F)c(F)c(F)c(F)c3F)cc2s1 | – | – | –
890 | 410 | NS(=O)(=O)c1ccc(NS(=O)(=O)c2c(F)c(F)c(F)c(F)c2F)cc1 | – | – | –
270 | 8 | Cn1nc(S(N)(=O)=O)s/c1=N/C(=O)c1c(F)c(F)c(F)c(F)c1F | – | – | –
